Test results as given in ChEMBL document CHEMBL3638649, “Dihydroorotate dehydrogenase inhibitors” (2015).
pIC50: −log10 of the molar value.

Target: Dihydroorotate dehydrogenase (quinone), mitochondrial (Homo sapiens, UniProt Q02127)
Assay: Enzyme Assay: The DHODH activity assay is a coupled enzyme assay in which oxidation of DHO and subsequent reduction of ubiquinone are stoichiometrically equivalent to the reduction of DCIP ([…]). The reduction of DCIP is accompanied by a loss of absorbance at 610 nm.Reagents Used:L-Dihydroorotic acid, Sigma, D7128, 2,6-Dichloroindophenol sodium salt hydrate, sigma, D1878 Dimethyl sulfoxide (DMSO), spectroscopic grade purchased from Spectrochem, cat no. 0704209, B. no.--3183650 Decylubiquinone, Sigma, D7911Preparation of Solutions/Reagents:Buffer Preparation: 50 mM tris HCl, 150 mM KCl, and pH 8.0, 0.8% triton.L-Dihydroorotic acid stock solution of 20 mM in buffer2,6-Dichloroindophenol Sodium salt hydrate stock solution of 20 mM in bufferDecylubiquinone stock solution of 20 mM in bufferDMSO used as vehicleProcedure:5 µL of Dimethyl sulfoxide or a compound of formula I in DMSO solution was added to the wells of a 96 well plate. Compounds of formula I were measured at 10 µM.

Chain of Dihydroorotate dehydrogenase (quinone), mitochondrial (Q02127 whole entry): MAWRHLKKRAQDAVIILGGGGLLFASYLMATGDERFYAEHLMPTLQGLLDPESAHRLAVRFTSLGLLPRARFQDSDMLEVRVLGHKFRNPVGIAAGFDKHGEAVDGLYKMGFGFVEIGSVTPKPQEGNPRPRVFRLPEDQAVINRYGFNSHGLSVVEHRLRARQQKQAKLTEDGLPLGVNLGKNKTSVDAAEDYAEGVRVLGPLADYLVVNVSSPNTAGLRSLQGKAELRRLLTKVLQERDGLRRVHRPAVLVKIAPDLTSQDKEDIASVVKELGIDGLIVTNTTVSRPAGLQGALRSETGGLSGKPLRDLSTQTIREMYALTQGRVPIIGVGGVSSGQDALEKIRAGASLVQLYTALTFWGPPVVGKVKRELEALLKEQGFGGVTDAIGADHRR

pIC50: 4.94
Compound: Cc1cc(C(=O)O)c2nc(C#Cc3ccccc3)[nH]c2c1
